Consider 1 compound from paper PMC11124870, “Effect of Antioxidants in Medicinal Products on Intestinal Drug Transporters” (Pharmaceutics, 2024).

As a reminder, the IC50 is the concentration that inhibits the measured activity by half. Usually LogP stands for a log measure of how a compound divides between an organic and an aqueous phase.

Series [1] deals with T1, OATP2B1 (Homo sapiens, UniProt O94956).
T1 sequence (O94956 1-709): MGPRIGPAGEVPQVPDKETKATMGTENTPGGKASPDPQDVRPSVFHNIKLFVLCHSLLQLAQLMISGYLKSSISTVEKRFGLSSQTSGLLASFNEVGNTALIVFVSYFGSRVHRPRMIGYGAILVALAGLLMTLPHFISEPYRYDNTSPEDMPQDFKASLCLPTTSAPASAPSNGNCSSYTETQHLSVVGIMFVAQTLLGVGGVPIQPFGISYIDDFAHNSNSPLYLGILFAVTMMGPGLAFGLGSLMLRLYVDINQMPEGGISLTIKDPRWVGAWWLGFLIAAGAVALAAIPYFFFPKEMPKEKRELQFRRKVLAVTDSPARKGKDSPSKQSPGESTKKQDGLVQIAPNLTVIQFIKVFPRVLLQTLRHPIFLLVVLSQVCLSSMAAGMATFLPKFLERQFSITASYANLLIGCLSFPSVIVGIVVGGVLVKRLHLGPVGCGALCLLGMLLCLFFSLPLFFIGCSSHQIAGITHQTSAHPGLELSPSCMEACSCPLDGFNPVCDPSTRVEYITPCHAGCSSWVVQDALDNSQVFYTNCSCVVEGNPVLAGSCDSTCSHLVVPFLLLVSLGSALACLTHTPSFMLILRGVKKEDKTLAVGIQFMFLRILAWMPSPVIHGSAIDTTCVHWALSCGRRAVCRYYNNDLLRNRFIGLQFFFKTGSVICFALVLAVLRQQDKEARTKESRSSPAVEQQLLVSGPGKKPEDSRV
The series is described as follows: 3H-valsartan uptake inhibition in HEK-293-OATP2B1 cells. The note with it: read-out: IC50 OATP2B1, valsartan uptake, substrate 3H-valsartan, three independent experiments.
Protocol: (§1) The uptake transporter assay was performed as reported previously with minor modifications [15]. A day before the uptake assay, Isoplate 96-well plates were coated with poly-D-lysine in PBS with calcium and magnesium and washed with PBS. […] An assay mixture of ^3H-estrone sulfate, a known inhibitor of OATP2B1, or an antioxidant was prepared and incubated in a 37 °C incubator for 10 min. The cells were washed with ice-cold HBSS three times and incubated with MicroScint fluid on a shaker for 1 h for cell lysis. Radioactivity was measured by liquid scintillation counting with a MicroBeta^2® microplate counter. […] On the day of experiment, cells were washed twice with 0.4 mL of HBSS per well and then pre-incubated for 10–20 min in 0.4 mL of HBSS. […] Uptake of ^3H-valsartan was stopped after 15 min by washing three times with ice-cold HBSS. Cells were lysed in 750 µL of lysis buffer (0.1 N NaOH and 0.1% SDS in double-distilled water) per well while shaking for 60 min. A total of 690 µL of the lysate from each well was then added to 2.5 mL of EcoLite scintillation fluid. The radioactivity was determined on a LS6500 Scintillation Counter (Beckman Coulter). Protein concentration was measured with a Pierce™ BCA protein assay kit. The radioactivity in each well was corrected for protein concentration. All values were determined in triplicate, and the final values are expressed as % uptake relative to negative control (1% DMSO).
(§2) Antioxidants were screened at a concentration of 200 μM.

The conditions of series [2]: Table S1; source not stated; cited from earlier work.
Series [3] concerns the target T1, OATP2B1. The series is described as follows: Uptake transporter assay, 3H-estrone sulfate uptake in HEK-293-OATP2B1 cells. Conditions: for IC50: mean ± SD of three independent experiments.
Protocol: as §1, §2
The nature of series [4]: Estimation of intestinal luminal concentration (Igut), dose/250 mL. Conditions: estimated from maximum oral amount (AP 10 mg, BHA 8 mg) in 250 mL intestinal fluid. As to the method:
Igut is intestinal luminal concentration estimated as dose/250 mL. The Igut concentration was estimated using the following equation: Igut=A÷MW×V×10^6 where Igut is the estimated intestinal luminal concentration (µM), A is the amount of antioxidant in an oral dosage (mg), MW is the molecular weight, and V is the volume of intestinal fluid, i.e., 250 mL.

For another series, the target named is T2, P-gp (Homo sapiens, UniProt P08183).
T2 construct: purchased ThermoFisher Scientific GM0015; host or cells: Sf9 membrane vesicles
T2 sequence (P08183 whole entry): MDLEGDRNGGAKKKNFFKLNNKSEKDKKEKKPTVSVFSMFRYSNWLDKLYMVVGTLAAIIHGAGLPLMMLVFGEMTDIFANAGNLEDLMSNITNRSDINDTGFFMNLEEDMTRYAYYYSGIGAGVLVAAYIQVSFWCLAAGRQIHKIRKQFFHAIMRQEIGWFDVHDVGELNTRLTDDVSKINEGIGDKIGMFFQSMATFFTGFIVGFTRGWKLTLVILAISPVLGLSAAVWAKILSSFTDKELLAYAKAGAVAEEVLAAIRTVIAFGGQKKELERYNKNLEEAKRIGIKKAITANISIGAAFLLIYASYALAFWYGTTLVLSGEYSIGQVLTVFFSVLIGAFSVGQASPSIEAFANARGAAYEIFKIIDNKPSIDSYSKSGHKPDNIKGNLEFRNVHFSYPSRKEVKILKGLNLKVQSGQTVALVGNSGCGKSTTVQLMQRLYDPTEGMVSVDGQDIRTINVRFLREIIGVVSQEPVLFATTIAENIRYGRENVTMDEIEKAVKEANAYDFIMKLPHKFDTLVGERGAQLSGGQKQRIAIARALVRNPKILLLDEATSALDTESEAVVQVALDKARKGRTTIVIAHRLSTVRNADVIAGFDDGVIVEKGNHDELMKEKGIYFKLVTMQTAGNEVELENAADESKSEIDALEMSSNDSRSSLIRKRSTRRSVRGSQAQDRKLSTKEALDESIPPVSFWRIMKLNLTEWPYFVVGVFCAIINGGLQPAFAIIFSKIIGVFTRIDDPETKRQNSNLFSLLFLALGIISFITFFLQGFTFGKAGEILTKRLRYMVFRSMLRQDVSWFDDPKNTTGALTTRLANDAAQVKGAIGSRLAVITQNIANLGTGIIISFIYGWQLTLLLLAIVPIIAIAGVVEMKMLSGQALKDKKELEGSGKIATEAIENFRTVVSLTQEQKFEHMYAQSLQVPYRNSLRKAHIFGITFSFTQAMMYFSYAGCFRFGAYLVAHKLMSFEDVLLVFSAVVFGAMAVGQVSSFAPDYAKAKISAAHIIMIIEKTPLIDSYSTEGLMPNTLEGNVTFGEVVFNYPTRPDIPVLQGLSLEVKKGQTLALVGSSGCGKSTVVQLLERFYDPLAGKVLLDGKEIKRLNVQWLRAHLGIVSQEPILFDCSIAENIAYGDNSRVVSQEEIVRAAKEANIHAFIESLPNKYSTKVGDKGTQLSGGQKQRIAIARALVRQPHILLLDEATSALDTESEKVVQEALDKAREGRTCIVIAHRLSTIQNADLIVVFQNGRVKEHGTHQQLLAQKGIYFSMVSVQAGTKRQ
The series is described as follows: Vesicular transport assay, 3H-NMQ uptake in P-gp membrane vesicles. Format: biochemical. The method, then:
The vesicular transport assay was performed using Spodoptera frugiperda 9 (Sf9) membrane vesicles overexpressing human P-gp or BCRP, as reported previously with minor modifications. In brief, Isoplate 96-well flat-bottom white plates were preincubated with HBSS containing 0.5 mg/mL BSA on an orbital shaker in a 37 °C incubator at 90 rpm for 60 min followed by washing with HBSS. The assay mixture (75 µL/well) contained a probe substrate and either vehicle control, a known inhibitor of P-gp or BCRP, or an antioxidant, in vesicle uptake buffer (50 mM MOPS-Tris, pH 7.0 + 70 mM KCl + 7.5 mM MgCl2) prewarmed to 37 °C. After addition of the assay mixture, 5 μL/well (5 μg/μL stock concentration of the vesicles) of vesicles overexpressing human P-gp or BCRP was added. Uptake assays were initiated by adding 20 μL of either 25 mM adenosine triphosphate (ATP) or 25 mM adenosine monophosphate (AMP) to a final concentration of 5 mM. Plates were incubated at 37 °C for 20 min with orbital shaking (90 rpm). After 20 min, the uptake was quenched by adding 150 μL of ice-cold wash buffer (40 mM MOPS-Tris, pH 7.0 + 70 mM KCl) to each well, and the mixture was transferred to a 96-well filtration plate. Vacuum was applied, and the vesicles were washed three times with wash buffer. Vesicles were then lysed with 100 µL of MicroScint-20.

The target in a further series is P-gp (human MDR1) (Homo sapiens, UniProt P08183). The series is described as follows: Transwell transport assay, basal-to-apical digoxin flux in MDCK-hMDR1-cMDR1-KO cells. Conditions: 3H-digoxin 2.5 µM, 4 h. The method, then: The transport assay was performed using MDCK-hMDR1-cMDR1-KO, MDCK-cMDR1-KO, and MDCK-hBCRP-cMDR1-KO as reported previously with minor modifications. In brief, 133,000 cells were seeded onto a Transwell membrane insert, a semipermeable polyethylene terephthalate membrane. During the differentiation process, the medium volume in the apical chamber was kept at 300 μL, while the basal chamber contained 1000 μL. The cells were allowed to differentiate for 7–9 days at 37 °C in a humidified incubator with 5% CO2. Before starting transporter assays, the integrity of the cell monolayer was checked using lucifer yellow permeability assays. […] From the basal chamber, 100 μL samples were collected for fluorescence measurements using GloMax® Explorer with a 475 nm excitation filter and a 500–550 nm emission filter to calculate the percent permeability per well.
Chain of P-gp (human MDR1) (P08183 whole entry): as above
To assess the flux of digoxin or prazosin from the basal to apical side, the cells were washed twice with HBSS. […] All apical and basal samples were mixed with scintillation fluid (EcoLite(+)™ liquid scintillation cocktail), and their radioactivity was measured using liquid scintillation counting (Beckman LS6500). […] For data analysis, the disintegration per minute counts of digoxin or prazosin from the apical samples were converted to picomoles using radioactivity measured in the substrate solution.

Series [5] relates to MDCK cell tight junctions. The series is described as follows: Lucifer yellow permeability assay of MDCK monolayer integrity. The note with it: BHA 250 µM. It counts as cell-based.
Protocol: The transport assay was performed using MDCK-hMDR1-cMDR1-KO, MDCK-cMDR1-KO, and MDCK-hBCRP-cMDR1-KO as reported previously with minor modifications [14, 27]. In brief, 133,000 cells were seeded onto a Transwell membrane insert, a semipermeable polyethylene terephthalate membrane. During the differentiation process, the medium volume in the apical chamber was kept at 300 μL, while the basal chamber contained 1000 μL. The cells were allowed to differentiate for 7–9 days at 37 °C in a humidified incubator with 5% CO2. Before starting transporter assays, the integrity of the cell monolayer was checked using lucifer yellow permeability assays. Cells were washed twice with HBSS, lucifer yellow (0.1 mg/mL) in HBSS was added to the apical chamber, and the basal chamber was filled with fresh HBSS. The assembled plate was then incubated at 37 °C for 1 h. From the basal chamber, 100 μL samples were collected for fluorescence measurements using GloMax® Explorer with a 475 nm excitation filter and a 500–550 nm emission filter to calculate the percent permeability per well.
At the end of the transport assay, a lucifer yellow permeability assay was performed as described earlier.

“And” between values parts separate entries of the source, which are not always exact repeats. Equal entries are not always repeated. “Also recorded” adds a separate entry of the source.

Regarding `COc1ccc(O)cc1C(C)(C)C` [Butylated hydroxyanisole (BHA), 2-tert-Butyl-4-hydroxyanisole], the IC50 was 19 µM and 19.1 µM on OATP2B1 [1]; 71 ± 20 µM at OATP2B1 [3] (read-out: IC50 OATP2B1, substrate 3H-estrone sulfate); 67 ± 12.8 µM at OATP2B1 [3] (read-out: IC50 with preincubation, OATP2B1 expressing cells pre-incubated 30 minutes); 76.9 ± 15.9 µM at OATP2B1 [3] (read-out: IC50 without preincubation, OATP2B1 expressing cells); 182 ± 49 µM against P-gp (substrate 3H-NMQ, mean ± SD of three independent experiments). For the same compound, the LogP in series [2] was 3.2. Moreover, the “Inhibition of OATP2B1” value on OATP2B1 [3] (200 µM, 3H-estrone sulfate) is on record as “at least 50%”. The “Effect of 30 min pre-incubation on inhibition potency” value at OATP2B1 [3] (OATP2B1-expressing cells pre-incubated for 30 min) was “did not further affect their inhibition potency”. The “% Uptake of 3H-ES OATP2B1” value on OATP2B1 [3] (antioxidant 200 µM, uptake with DMSO set as 100%, mean ± SD, three replicates, HEK-293-OATP2B1 cells) is given as 19.8 ± 7.1%. Besides, in series [4], the “Max Intestinal Conc (µM) in 250 mL Fluid” value is listed as 178 µM. Further, the “Inhibition of P-gp” value on P-gp (200 µM, 3H-NMQ) is “at least 50%”. Moreover, the “% Uptake of 3H-NMQ P-gp” value at P-gp (antioxidant 200 µM, uptake with DMSO set as 100%, mean ± SD, three replicates, membrane vesicles) is on record as 42.1 ± 5.7%. Moreover, the “Inhibition of digoxin transport (basal to apical)” value is “Neither the estimated maximal intestinal concentration of 178 µM nor a lower concentration (62.5 µM) inhibited digoxin transport” on P-gp (human MDR1) (BHA 62.5 µM on both sides) and “Neither the estimated maximal intestinal concentration of 178 µM nor a lower concentration (62.5 µM) inhibited digoxin transport; also recorded: did not impede digoxin transport” at P-gp (human MDR1) (BHA 178 µM on both sides). The “Effect on MDCK cell tight junctions (lucifer yellow permeability)” value in series [5] was “disrupted MDCK cell tight junctions”.
